pEC50: −log10 of the molar value. Bounds are passed on as bounds.

This experiment relates to T-24. Put plainly: Antiproliferative activity against human T24 cells. Format: functional. The note with it: read-out: ED50 (the source's name).
Turning to `O[C@@H]1[C@@H](O)[C@H](Oc2cccc3c(O[C@@H]4OC[C@@H](O)[C@H](O)[C@H]4O)cccc23)OC[C@H]1O`, the pEC50 was 3.40.

Regarding `O[C@@H]1[C@@H](Oc2ccc3ccc(O[C@@H]4OC[C@@H](O)[C@H](O)[C@H]4O)cc3c2)OC[C@H](O)[C@H]1O`, the pEC50 is 3.35.

For the compound `O[C@@H]1[C@@H](O)[C@H](Oc2ccc3cc(O[C@@H]4OC[C@@H](O)[C@H](O)[C@H]4O)ccc3c2)OC[C@H]1O`, the pEC50 is under 3.40.

As for `O[C@@H]1[C@@H](O)[C@H](Oc2cc(O[C@@H]3OC[C@@H](O)[C@H](O)[C@H]3O)c3ccccc3c2)OC[C@H]1O`, the pEC50 is under 3.40.

Consider `O[C@@H]1[C@@H](O)[C@H](Oc2ccc(O[C@@H]3OC[C@@H](O)[C@H](O)[C@H]3O)c3ccccc23)OC[C@H]1O`, for which the pEC50 was 3.40.

Values taken from ChEMBL document CHEMBL1147852, “Synthesis and biology of bis-xylosylated dihydroxynaphthalenes” (2007).
